The text below walks through data of patent US20020128256A1, “Methods for the treatment or prevention of inflammatory diseases characterized by abnormal cell proliferation” (priority 1997, published 2002).

Where two headings read alike, the source gives them in different places. Some results are limits rather than exact numbers.

In data set [1] the test system is HCT-15. In words: SRB antiproliferative assay, HCT-15. It is filed as cell-based. Particulars: read-out: SRB assay IC50. In general terms: The SRB assay estimates cell density from bound dye.
Protocol: (§1) The antiproliferative assays described herein were performed using standard aseptic procedures and universal precautions for the use of tissues. Cells were propagated using RPMI 1640 media (Gibco) containing 2% N 5% fetal calf serum (Biowhittaker) at 37° C., 5% CO2 and 95% humidity. The cells were passaged using Trypsin (Gibco). Prior to addition of test compound, the cells were harvested, the cell number counted and seeded at 10,000 cells/well in 100 μl 5% fetal calf serum (FCS) containing RPMI medium in 96-well plates and incubated overnight at 37° C., 5% CO2 and 95% humidity.
(§2) Following incubation, the cellular protein was determined with the ulforhodamine B (SRB) assay (Skehan P et al., 1990, J. Natl. Cancer Inst. 82:1107-1112).
Data set [2] relates to MDA-MB-231. In words: SRB antiproliferative assay, MDA-MB-231. Type of data set: cell-based. Particulars: read-out: SRB assay IC50.
Data set [3] has as its system HTB174. In words: SRB antiproliferative assay, HTB174. It is filed as cell-based. Particulars: read-out: SRB assay IC50.
Protocol: as §1, §2
In data set [4] the test system is MMRU. In words: SRB antiproliferative assay, MMRU. Type of data set: cell-based, human.
Protocol: Cells were propagated using RPMI 1640 media (Gibco) containing 2% N 5% fetal calf serum (Biowhittaker) at 37° C., 5% CO2 and 95% humidity. The cells were passaged using Trypsin (Gibco). Prior to addition of test compound, the cells were harvested, the cell number counted and seeded at 10,000 cells/well in 100 μl 5% fetal calf serum (FCS) containing RPMI medium in 96-well plates and incubated overnight at 37° C., 5% CO2 and 95% humidity.
as §2
The subject of data set [5] is HEPG2. The data set can be described thus: SRB antiproliferative assay, HEPG2. Type of data set: cell-based.
Protocol: as §1, §2
In data set [6] the target is T1, Gardos channel of erythrocytes (Homo sapiens, UniProt O15554).
T1 construct: endogenous in cells; host or cells: erythrocytes
The data set can be described thus: Gardos Channel Assay. Type of data set: cell-based.

Data set [7] has as its system U118MG. The data set can be described thus: SRB antiproliferative assay, U118MG. It is filed as cell-based.
Protocol: as §1, §2
Data set [8] deals with ACHN. The data set can be described thus: SRB antiproliferative assay, ACHN. It is filed as cell-based. Particulars: read-out: SRB assay IC50.
Protocol: as §1, §2
Data set [9] has as its system SK-OV-3. In words: SRB antiproliferative assay, SK-OV-3. It is filed as cell-based. Particulars: SK-OV-3 (Ovary); 5% FCS, 5 Day Incubation.
Protocol: as §1, §2
Data set [10] concerns HeLa. The data set can be described thus: SRB antiproliferative assay, HeLa. It is filed as cell-based. To be noted: read-out: SRB assay IC50.
Protocol: as §1, §2
Data set [11] deals with HUVEC. The data set can be described thus: SRB assay, normal cells HUVEC. It is filed as cell-based, human. Particulars: read-out: SRB assay IC50.
Protocol: as §1, §2
In data set [12] the test system is MCF7. In words: SRB antiproliferative assay, MCF7. Type of data set: cell-based.
Protocol: as §1, §2
Data set [13] has as its system A549. The data set can be described thus: SRB antiproliferative assay, A549. Type of data set: cell-based.
Protocol: as §1, §2
The test system of data set [14] is L929. The data set can be described thus: SRB assay, normal cells L929. It is filed as cell-based, mouse. To be noted: read-out: SRB assay IC50.
Protocol: as §1, §2
Data set [15] concerns SK-MEL-28. In words: SRB antiproliferative assay, SK-MEL-28. Type of data set: cell-based. To be noted: read-out: SRB assay IC50.
Protocol: as §1, §2
Data set [16] relates to 3T3. In words: SRB assay, normal cells 3T3. It is filed as cell-based, mouse. To be noted: read-out: SRB assay IC50.
Protocol: as §1, §2
The subject of data set [17] is GM. The data set can be described thus: SRB assay, normal cells GM. Type of data set: cell-based, human. Particulars: read-out: SRB assay IC50.
Protocol: as §1, §2
In data set [18] the test system is HT29. The data set can be described thus: SRB antiproliferative assay, HT29. It is filed as cell-based.
Protocol: as §1, §2
Data set [19] has as its system CaSki. In words: SRB antiproliferative assay, CaSki. Particulars: read-out: SRB assay IC50. It is filed as cell-based.
Protocol: as §1, §2
The test system of data set [20] is DU-145. The data set can be described thus: SRB antiproliferative assay, DU-145. Particulars: read-out: SRB assay IC50. It is filed as cell-based.
Protocol: as §1, §2
For data set [21], the system named is NIH 3T3 mouse fibroblast cells. The data set can be described thus: Mitogenic Assay (mitogen-induced cell proliferation). Type of data set: cell-based.
In data set [22] the target is T2, red cell Gardos channel (Mus musculus, UniProt O89109).
T2 construct: host or cells: red cells of SAD mouse
To be noted: oral administration; cited from earlier work.

Data set [23] deals with T3, Gardos channel (Homo sapiens, UniProt O15554). Further details: reduces erythrocyte dehydration in patients with sickle cell disease; host or cells: erythrocytes of patients. Particulars: oral therapy; cited from earlier work.
In data set [24] the test system is MM-RU human melanoma cells. Particulars: SCID mice, daily administration; cited from earlier work.
Data set [25] relates to normal and cancer cell lines. Particulars: cited from earlier work.
The target of data set [26] is T3, Gardos channel. Further details: host or cells: sickle erythrocytes (printed for Clotrimazole only). To be noted: in vitro, sickle erythrocytes; cited from earlier work.
[27] abbreviates: Homo sapiens, 120 h, read-out: SRB assay IC50.
Where [28] appears, read: Homo sapiens, read-out: SRB IC50.
Where [29] appears, read: Homo sapiens, HepG2, 120 h, read-out: SRB assay IC50.
[30] abbreviates: Homo sapiens, U-118-MG, 120 h, read-out: SRB assay IC50.
[31] abbreviates: Homo sapiens, MCF7, 120 h, read-out: SRB assay IC50.
Setting [32] is: Homo sapiens, MCF7, read-out: SRB IC50.
The mark [33] stands for this setting: Homo sapiens, A549, 120 h, read-out: SRB assay IC50.
Setting [34] is: Homo sapiens, A549, read-out: SRB IC50.
The mark [35] stands for this setting: Homo sapiens, HT-29, 120 h, read-out: SRB assay IC50.
[36] abbreviates: Homo sapiens, HT-29, read-out: SRB IC50.

T1 sequence (O15554 whole entry): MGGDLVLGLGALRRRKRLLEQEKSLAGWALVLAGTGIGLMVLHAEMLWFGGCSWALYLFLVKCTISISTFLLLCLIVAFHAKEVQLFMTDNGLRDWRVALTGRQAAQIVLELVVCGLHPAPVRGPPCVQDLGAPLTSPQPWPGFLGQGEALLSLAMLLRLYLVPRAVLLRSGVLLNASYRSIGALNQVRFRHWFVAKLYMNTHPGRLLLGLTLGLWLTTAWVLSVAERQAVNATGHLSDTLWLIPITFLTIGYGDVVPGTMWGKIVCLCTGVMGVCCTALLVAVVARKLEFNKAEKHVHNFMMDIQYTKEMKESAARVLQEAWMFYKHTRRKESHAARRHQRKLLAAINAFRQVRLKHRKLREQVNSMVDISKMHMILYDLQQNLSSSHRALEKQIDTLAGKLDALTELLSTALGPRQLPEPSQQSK
T3 sequence (O15554 whole entry): as above
T2 sequence (O89109 whole entry): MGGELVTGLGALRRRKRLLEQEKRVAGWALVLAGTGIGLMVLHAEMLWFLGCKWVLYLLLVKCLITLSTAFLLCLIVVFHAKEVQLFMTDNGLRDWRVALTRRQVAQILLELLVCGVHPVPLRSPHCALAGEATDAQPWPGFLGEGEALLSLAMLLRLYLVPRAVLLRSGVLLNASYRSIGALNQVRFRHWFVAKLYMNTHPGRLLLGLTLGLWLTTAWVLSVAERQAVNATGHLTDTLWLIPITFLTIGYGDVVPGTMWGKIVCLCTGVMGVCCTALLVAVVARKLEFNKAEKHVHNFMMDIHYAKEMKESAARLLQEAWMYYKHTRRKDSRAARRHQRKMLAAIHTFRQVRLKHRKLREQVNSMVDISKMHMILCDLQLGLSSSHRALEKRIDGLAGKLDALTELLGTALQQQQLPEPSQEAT

With “6-Chloro-3,3-di(4′-chlorophenyl)-2-N-oxime-3,3-diphenylindane [Compound 11]”, the IC50 in data set [1] (HCT-15 (Colon), 5% FCS, 5 Day Incubation) was 6.6 µM; in data set [2] (MDA-MB-23 (Breast), 5% FCS, 5 Day Incubation), greater than 10 µM; in [3] (HTB174 (Lung), 5% FCS, 5 Day Incubation), 5.9 µM; in [4] (MMRU (Melanoma), 5% FCS, 5 Day Incubation, read-out: SRB assay IC50) it was 6.2 µM; in data set [5] (HEPG2 (Hepatocel), 5% FCS, 5 Day Incubation, read-out: SRB assay IC50), 5.8 µM; in data set [7] (U118MG (CNS), 5% FCS, 5 Day Incubation, read-out: SRB assay IC50) it was greater than 10 µM. The concentration for half-maximal inhibition (IC50) in data set [8] (ACHN (Renal), 5% FCS, 5 Day Incubation) is greater than 10 µM; in data set [9], greater than 10 µM; in data set [10] (HeLa (Cervical), 5% FCS, 5 Day Incubation), 5.1 µM; in data set [11] (HUVEC (Normal human), 5% FCS, 5 Day Incubation), 6.4 µM; in data set [12] (MCF7 (Breast), 5% FCS, 5 Day Incubation, read-out: SRB assay IC50) it was 4.4 µM; in data set [13] (A549 (Lung), 5% FCS, 5 Day Incubation, read-out: SRB assay IC50) it was 8.8 µM. Further, the IC50 was 8.6 µM in [14] (L929 (Normal mouse), 5% FCS, 5 Day Incubation); 5.5 µM in data set [15] (SK-MEL-28 (Melanoma), 5% FCS, 5 Day Incubation); greater than 10 µM in data set [16] (3T3 (Normal mouse), 5% FCS, 5 Day Incubation); greater than 10 µM in data set [17] (GM (Normal human), 5% FCS, 5 Day Incubation); 6.8 µM in data set [18] (HT29 (Colon), 5% FCS, 5 Day Incubation, read-out: SRB assay IC50); 7 µM in [19] (CaSki (Cervical), 5% FCS, 5 Day Incubation). The IC50 in data set [20] (DU-145 (Prostate), 5% FCS, 5 Day Incubation) was greater than 10 µM; in [21] (NIH 3T3 mouse fibroblast cells, mitogen-induced proliferation, read-out: Mitogenic Assay IC50), 3.4 µM. The “Gardos Channel Assay Inhibition (%)” value in [6] (measured at 10 μM compound) turned out to be 50.0%. In [21] (measured at 10 μM compound, NIH 3T3 cells), the “Mitogenic Assay Inhibition (%)” value was found to be 99.0%.
Regarding `Clc1ccccc1C(c1ccccc1)(c1ccccc1)n1ccnc1` [Clotrimazole], the inhibition at 10 µM is 99.3% in data set [6] (read-out: Gardos Channel Assay Inhibition (%)) and 93% in data set [21] (Mus musculus, NIH3T3, measured at 10 μM compound, NIH 3T3 cells, read-out: Mitogenic Assay Inhibition (%)). In data set [22], the “Effect on red cells in SAD mouse” value is “inhibition of the red cell Gardos channel, increased red cell K^+ content, a decreased mean cell hemoglobin concentration (MCHC) and decreased cell density”. Besides, the “Effect in patients with sickle cell disease” value in data set [23] was “induces inhibition of the Gardos channel and reduces erythrocyte dehydration”. Also, the “Number of lung metastases” value in data set [24] is on record as “significant reduction in the number of lung metastases”. The “Rate of cell proliferation in vitro” value in [25] was “inhibits the rate of cell proliferation of normal and cancer cell lines in a reversible and dose-dependent manner”. The “Ca2+-activated K+ transport and cell dehydration in sickle erythrocytes” value in data set [26] was “blocks Ca^2+-activated K^+ transport and cell dehydration in sickle erythrocytes”.
Consider `O=C1CC(c2ccc(Cl)cc2)(c2ccc(Cl)cc2)c2ccc(Cl)cc21` [Compound 8, 6-Chloro-3,3-di(4-chlorophenyl)indanone], for which the melting point turned out to be 134 °C. Moreover, in [1] (Homo sapiens, HCT-15, 120 h), the IC50 is greater than 10 µM. In addition, the IC50 in data set [2] (Homo sapiens, 120 h) is greater than 10 µM. The IC50 in data set [3] (120 h) was greater than 10 µM. Also, the half-maximal inhibitory concentration (IC50) in data set [4] (setting [27]) is greater than 10 µM. Also, the concentration for half-maximal inhibition (IC50) in [4] (setting [28]) is 3.3 µM. In [5] (setting [29]), the half-maximal inhibitory concentration (IC50) came out at 6.4 µM. In [5] (Homo sapiens, HepG2, read-out: SRB IC50), the IC50 amounted to 7.8 µM. Also, the IC50 in data set [7] (setting [30]) is greater than 10 µM. Further, in data set [7] (Homo sapiens, U-118-MG, read-out: SRB IC50), the concentration for half-maximal inhibition (IC50) is greater than 10 µM. Further, in data set [8] (Homo sapiens, ACHN, 120 h), the IC50 is greater than 10 µM. The IC50 in [10] (Homo sapiens, HeLa, 120 h) is greater than 10 µM. Also, in data set [11] (Homo sapiens, HUVEC, 120 h), the IC50 was greater than 10 µM. Besides, the concentration for half-maximal inhibition (IC50) in data set [12] (setting [31]) is 5.5 µM. Besides, the 50% inhibitory concentration (IC50) in [12] (setting [32]) was greater than 10 µM. In data set [13] (setting [33]), the IC50 was 8.9 µM. Besides, the concentration for half-maximal inhibition (IC50) in [13] (setting [34]) was greater than 10 µM. In data set [14] (Mus musculus, L929, 120 h), the IC50 is greater than 10 µM. Also, the concentration for half-maximal inhibition (IC50) in [15] (Homo sapiens, SK-MEL-28, 120 h) is greater than 10 µM. In addition, in data set [16] (Mus musculus, NIH3T3, 120 h), the IC50 was greater than 10 µM. The IC50 in data set [17] (Homo sapiens, 120 h) is greater than 10 µM. Further, in data set [18] (setting [35]), the IC50 turned out to be 8.3 µM. The half-inhibitory concentration (IC50) in data set [18] (setting [36]) was greater than 10 µM. In [19] (Homo sapiens, Ca-Ski, 120 h), the half-maximal inhibitory concentration (IC50) came out at 6.8 µM. Besides, the IC50 in [20] (Homo sapiens, DU-145, 120 h) was greater than 10 µM. Besides, the IC50 in [21] (Mus musculus, NIH3T3, read-out: Mitogenic Assay IC50) was found to be 2 µM. The inhibition at 10 µM in data set [21] (Mus musculus, NIH3T3, read-out: Mitogenic Assay Inhibition (%)) was 97%.
Take `COc1cc([C@@H]2c3cc4c(cc3[C@@H](O[C@@H]3O[C@@H]5CO[C@@H](C)O[C@H]5[C@H](O)[C@H]3O)[C@H]3COC(=O)[C@H]23)OCO4)cc(OC)c1O` [VP-16, Etoposide (VP-16), reference compound]: the IC50 in data set [1] (Homo sapiens, HCT-15, 120 h) is 1.3 µM; in [2] (Homo sapiens, 120 h), less than 1.25 µM; in data set [3] (120 h), less than 1.25 µM; in [4] (setting [27]), less than 1.25 µM; in data set [4] (setting [28]) it was less than 2.5 µM; in [5] (setting [29]), less than 1.25 µM. For the same molecule, the IC50 in [7] (setting [30]) is 2.2 µM; in data set [8] (Homo sapiens, ACHN, 120 h), less than 1.25 µM; in [10] (Homo sapiens, HeLa, 120 h), less than 1.25 µM; in [11] (Homo sapiens, HUVEC, 120 h) it was less than 1.25 µM; in data set [12] (setting [31]) it was less than 1.25 µM; in data set [12] (setting [32]), less than 2.5 µM. Further, the IC50 in [13] (setting [33]) was less than 1.25 µM; in data set [13] (setting [34]), 2.3 µM; in [14] (Mus musculus, L929, 120 h), less than 1.25 µM; in [15] (Homo sapiens, SK-MEL-28, 120 h) it was less than 1.25 µM; in data set [17] (Homo sapiens, 120 h) it was 1.4 µM; in data set [18] (setting [35]) it was less than 1.25 µM. Moreover, the IC50 in data set [18] (setting [36]) is 20 µM; in data set [19] (Homo sapiens, Ca-Ski, 120 h) it was 1.8 µM; in data set [20] (Homo sapiens, DU-145, 120 h), less than 1.25 µM.

One may read the IC50 as the concentration that inhibits the measured activity by half. As a reminder, the inhibition is how much of the control response was suppressed. For orientation: melting point means the temperature, or range, at which the solid turns liquid.
